The supplement of paper PMC11061612

Experiments:
Assay in all cases: combination Emax (second highest fraction inhibited in the dose matrix, 72 h); higher = more inhibition; extreme values may be limits of the assay
[1] = tested on: CAL-51 (Breast Carcinoma)
How it was run: (§1)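 Cell lines in DMEM/F12 or RPMI with 10% FBS were plated in 1536-well plates, held 24 hours at 37°C, 5% CO2, then given two-drug dose matrices for 72 hours (DMSO typically 0.2%). Viability was read by CellTiter-Glo 2.0 luminescence and scaled as inhibition from 0 (vehicle wells) to 1 (blank wells). Combination Emax is the second-highest inhibition in the matrix; Bliss excess is observed combination effect minus expected EA + EB − EA·EB, EA and EB being single-agent effects.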

COLO-829 (Melanoma) = tested on: COLO-829 (Melanoma)
How it was run: as §1

[2] = tested on: EN (Endometrial Carcinoma)
How it was run: as §1

[3] = tested on: HCC-15 (Squamous Cell Lung Carcinoma)
How it was run: as §1

HMV-II (Melanoma) = tested on: HMV-II (Melanoma)
How it was run: as §1

[4] = tested on: HO-1-u-1 (Oral Cavity Carcinoma)
How it was run: as §1

[5] = tested on: Hs-633T (Other Solid Carcinomas)
How it was run: as §1

[6] = tested on: KYSE-410 (Esophageal Squamous Cell Carcinoma)
How it was run: as §1

[7] = tested on: LoVo (Colorectal Carcinoma)
How it was run: as §1

[8] = tested on: MDA-MB-468 (Breast Carcinoma)
How it was run: as §1

NCI-H2461 (Mesothelioma) = tested on: NCI-H2461 (Mesothelioma)
How it was run: as §1

NCI-H2795 (Mesothelioma) = tested on: NCI-H2795 (Mesothelioma)
How it was run: as §1

NCI-H28 (Mesothelioma) = tested on: NCI-H28 (Mesothelioma)
How it was run: as §1

[9] = tested on: PCI-30 (Head and Neck Carcinoma)
How it was run: as §1

[10] = tested on: RT-112 (Bladder Carcinoma)
How it was run: as §1

SH-4 (Melanoma) = tested on: SH-4 (Melanoma)
How it was run: as §1

[11] = tested on: SU-DHL-6 (B-Cell Non-Hodgkin's Lymphoma)
How it was run: as §1

[12] = tested on: SUP-T1 (T-Lymphoblastic Leukemia)
How it was run: as §1

[13] = tested on: TE-4 (Esophageal Squamous Cell Carcinoma)
How it was run: as §1

[14] = tested on: UMC-11 (Other Solid Carcinomas)
How it was run: as §1

| SMILES | combination Emax [1] | combination Emax (COLO-829 (Melanoma)) | combination Emax [2] | combination Emax [3] | combination Emax (HMV-II (Melanoma)) | combination Emax [4] | combination Emax [5] | combination Emax [6] | combination Emax [7] | combination Emax [8] | combination Emax (NCI-H2461 (Mesothelioma)) | combination Emax (NCI-H2795 (Mesothelioma)) | combination Emax (NCI-H28 (Mesothelioma)) | combination Emax [9] | combination Emax [10] | combination Emax (SH-4 (Melanoma)) | combination Emax [11] | combination Emax [12] | combination Emax [13] | combination Emax [14] |
| --- | --- | --- | --- | --- | --- | --- | --- | --- | --- | --- | --- | --- | --- | --- | --- | --- | --- | --- | --- | --- |
| CC(=O)c1c(C)c2cnc(Nc3ccc(N4CCNCC4)cn3)nc2n(C2CCCC2)c1=O [Palbociclib] + Cc1c2c(nn1C)CSCc1cc(n(C)n1)CSc1cc(c3ccccc3c1)OCCCc1c(C(=O)O)n(C)c3c-2c(Cl)ccc13 [AZD5991] (first compound max 10 µM, 7x7, partner max 1 µM) | 0.357 | 0.388 | 0.566 | 0.247 | 0.625 | 0.367 | 0.519 | 0.407 | 0.557 | 0.463 | 0.377 | 0.823 | 0.413 | 0.276 | 0.568 | 0.314 | 1 | 0.656 | 0.966 | 0.638 |
| CN(CCO)CC[C@H](CSc1ccccc1)Nc1ccc(S(=O)(=O)NC(=O)c2ccc(N3CCC([C@@H](O)c4ccccc4-c4ccc(Cl)cc4)CC3)cc2)cc1S(=O)(=O)C(F)(F)F [AZD4320] + C1CN(CCC1(C(=O)N[C@@H](CCO)C2=CC=C(C=C2)Cl)N)C3=NC=NC4=C3C=CN4 [Capivasertib] (first compound max 1 µM, 7x7, partner max 3 µM) | 0.504 | 0.118 | 0.576 | 0.923 | 0.169 | 0.744 | 0.298 | 0.0467 | 0.633 | 0.821 | 0.429 | 0.271 | 0.159 | 0.191 | 0.147 | 0.129 | 1 | 0.505 | 0.511 | 0.508 |
| COc1cccc(OCCCN)c1-c1cc(Nc2cnc(C#N)cn2)n[nH]1 [Prexasertib] + C[C@@H]1COCCN1C2=NC(=NC(=C2)C3(CC3)[S@](=N)(=O)C)C4=C5C=CNC5=NC=C4 [AZD6738] (first compound max 1 µM, 7x7, partner max 10 µM) | 0.929 | 0.335 | 0.726 | 0.33 | 0.565 | 0.923 | 0.936 | 0.532 | 0.869 | 0.547 | 0.721 | 0.765 | 0.592 | 0.773 | 0.992 | 0.63 | 0.621 | 0.808 | 0.652 | 0.866 |
| CC1(C)CCC(CN2CCN(c3ccc(C(=O)NS(=O)(=O)c4ccc(NCC5CCOCC5)c([N+](=O)[O-])c4)c(Oc4cnc5[nH]ccc5c4)c3)CC2)=C(c2ccc(Cl)cc2)C1 [Venetoclax] + C1CN(CCC1(C(=O)N[C@@H](CCO)C2=CC=C(C=C2)Cl)N)C3=NC=NC4=C3C=CN4 [Capivasertib] (first compound max 1 µM, 7x7, partner max 3 µM) | 0.487 | 0.16 | 0.554 | 0.232 | 0.236 | 0.719 | 0.177 | 0.203 | 0.454 | 0.511 | 0.528 | 0.375 | 0.216 | 0.252 | 0.192 | 0.208 | 0.995 | 0.757 | 0.564 | 0.196 |
| CCc1c2c(nc3ccc(O)cc13)-c1cc3c(c(=O)n1C2)COC(=O)[C@]3(O)CC [SN-38] + CN(C)CCCOc1ccc(-c2ccc3ncc4c(c3c2)n(C2CCOCC2)c(=O)n4C)cn1 [AZD0156] (first compound max 0.3 µM, 7x7, partner max 1 µM) | 0.728 | 0.497 | 0.157 | 0.879 | 0.587 | 0.676 | 0.838 | 0.254 | 0.727 | 0.735 | 0.639 | 0.808 | 0.307 | 0.692 | 0.797 | 0.27 | 0.987 | 0.853 | 0.402 | 0.303 |
| Cc1c2c(nn1C)CSCc1cc(n(C)n1)CSc1cc(c3ccccc3c1)OCCCc1c(C(=O)O)n(C)c3c-2c(Cl)ccc13 [AZD5991] + C=CCn1c(=O)c2cnc(Nc3ccc(N4CCN(C)CC4)cc3)nc2n1-c1cccc(C(C)(C)O)n1 [AZD1775] (first compound max 1 µM, partner max 1 µM) | 0.915 | 0.291 | 0.812 | 0.55 | 0.487 | 0.677 | 0.711 | 0.625 | 0.856 | 0.615 | 0.712 | 0.881 | 0.416 | 0.317 | 0.981 | 0.616 | 1 | 0.847 | 0.801 | 0.784 |
